In BigSolDB 2.1:

Q: Which results are given for `CC(=CC(C)=Nc1c(C)cc(C)cc1C)Nc1c(C)cc(C)cc1C`?
A: solubility (mole fraction) (in THF, 273.15 K): 0.215; solubility (mole fraction) (in THF, 278.15 K): 0.233; solubility (mole fraction) (in THF, 283.15 K): 0.253; solubility (mole fraction) (in THF, 288.15 K): 0.273; solubility (mole fraction) (in THF, 293.15 K): 0.295; solubility (mole fraction) (in THF, 298.15 K): 0.317; solubility (mole fraction) (in THF, 303.15 K): 0.346; solubility (mole fraction) (in ethanol, 273.15 K): 0.00285; solubility (mole fraction) (in ethanol, 278.15 K): 0.00317; solubility (mole fraction) (in ethanol, 283.15 K): 0.00373; solubility (mole fraction) (in ethanol, 288.15 K): 0.00471; solubility (mole fraction) (in ethanol, 293.15 K): 0.00561; solubility (mole fraction) (in ethanol, 298.15 K): 0.00678; solubility (mole fraction) (in ethanol, 303.15 K): 0.00849; solubility (mole fraction) (in methanol, 273.15 K): 0.0008; solubility (mole fraction) (in methanol, 278.15 K): 0.00094; solubility (mole fraction) (in methanol, 283.15 K): 0.00117; solubility (mole fraction) (in methanol, 288.15 K): 0.00137; solubility (mole fraction) (in methanol, 293.15 K): 0.00169; solubility (mole fraction) (in methanol, 298.15 K): 0.00205; solubility (mole fraction) (in methanol, 303.15 K): 0.00275; solubility (mole fraction) (in n-hexane, 273.15 K): 0.0989; solubility (mole fraction) (in n-hexane, 278.15 K): 0.106; solubility (mole fraction) (in n-hexane, 283.15 K): 0.124; solubility (mole fraction) (in n-hexane, 288.15 K): 0.148; solubility (mole fraction) (in n-hexane, 293.15 K): 0.181; solubility (mole fraction) (in n-hexane, 298.15 K): 0.216; solubility (mole fraction) (in n-hexane, 303.15 K): 0.255; solubility (mole fraction) (in toluene, 273.15 K): 0.189; solubility (mole fraction) (in toluene, 278.15 K): 0.211; solubility (mole fraction) (in toluene, 283.15 K): 0.236; solubility (mole fraction) (in toluene, 288.15 K): 0.264; solubility (mole fraction) (in toluene, 293.15 K): 0.295; solubility (mole fraction) (in toluene, 298.15 K): 0.33; solubility (mole fraction) (in toluene, 303.15 K): 0.372
